Where a name gives a salt, the structure may show the parent alone.
How the values were obtained:
BRD4-FL = target: T1, BRD4-FL (Homo sapiens, UniProt O60885); experiment: BET Bromodomain AlphaScreen assay (Example 9), BRD4-FL; format: binding
T1 construct: BRD4-FL: Full length BRD4
Method: (§1) The reader assay was a binding assay using the AlphaScreen technology fluorescence energy resonance transfer (FRET) assay. The biotinylated peptide binding to the reader domain of His-tagged protein is monitored by the singlet oxygen transfer from the Streptavidin-coated donor beads to the AlphaScreen Ni-chelate acceptor beads.
(§2) Reaction buffer: 50 mM Hepes, pH7.5, 100 mM NaCl, 0.05% CHAPS, 0.1% BSA, and 1% DMSO (Buffer and DMSO concentration may be different for different reader).
(§3) Biotin-peptide; sequences were different for different targets.
(§4) Reaction Procedure: • 1. Deliver 4× BRD in wells of reaction plate except No BRD control wells. Add buffer instead. • 2. Deliver compounds in 100% DMSO into the BRD mixture by Acoustic technology (Echo550; nanoliter range). Spin down and pre-incubation for 30 min. • 3. Deliver 4× Ligand. Spin and shake. • 4. Incubate for 30 min at room temperature with gentle shaking. • 5. Deliver 4× donor beads. Spin and shake. • 6. Deliver 4× acceptor beads. Spin and shake. Then gentle shaking in the dark for 60 min. • 7.

[1] = Liver microsome stability, human; format: in vitro ADME; details: pooled human liver microsomes (50 donors), 1 μM compound, 0.5 mg/ml microsomes, 37° C., read-out: % recovery Human Liver Microsomes (HLM) (30 min)
Method: (§5) Working stocks were initially diluted to a concentration of 40.0 μM in 0.1 M potassium phosphate buffer before addition to the reaction vials. Pooled mouse (CD-1, male) or human (50 donors) liver microsomes were utilized at a final concentration of 0.5 mg/ml. Duplicate wells were used for each time point (0 and 30 minutes). Reactions were carried out at 37° C. in a shaker, and the final concentration of DMSO was kept constant at 0.01%. The final volume for each reaction was 100 μL, which includes the addition of an NADPH-Regeneration solution (NRS) mix. This NRS mix was comprised of glucose 6-phosphate dehydrogenase (0.4 U/mL), NADP+ (1.3 mM), MgCl2 (3.3 mM), and glucose 6-phosphate (3.3 mM) in assay mixtures. Upon completion of the 30 minute time point, reactions were terminated by the addition of 1.5-volumes (150 μL) of ice-cold, acetonitrile with 0.5% formic acid and internal standard. Samples were then centrifuged at 4,000 rpm for 10 minutes to remove debris and precipitated protein. Approximately 150 μL of supernatant was subsequently transferred to a new 96 well microplate for LC/MS analysis.
(§6) Narrow-window mass extraction LC/MS analysis was performed for all samples using a Waters Xevo quadrupole time-of-flight (QTof) mass spectrometer and an ACQUITY UPLC system, to determine relative peak areas of parent compound.

BRD3-1 = target: T2, BRD3-1 (Homo sapiens, UniProt Q15059); experiment: BET Bromodomain AlphaScreen assay (Example 9), BRD3-1; format: binding
T2 construct: BRD3-1: Domain 1 of BRD3
Method: as §1, §2, §3, §4

BRD3-1: Domain 1 of BRD3 = target: T3, BRD3-1: Domain 1 of BRD3 (Homo sapiens, UniProt Q15059); experiment: Bromodomain binding assay (Example 6), BRD3-1
T3 construct: BRD3-1: Domain 1 of BRD3
Method: (§7) The binding of the compounds of the application to bromodomains BRD2, BRD3 and BRD4 was assessed using a time resolved fluorescent resonance energy transfer binding assay (Alpha Screen Technology), that measures the binding of an acetylated histone peptide to the bromodomain protein.
(§8) The bromodomain protein, histone peptide and a variable concentration of test compound were incubated together to reach thermodynamic equilibrium.

BRD2-1 = target: T4, BRD2-1 (Homo sapiens, UniProt P25440); experiment: BET Bromodomain AlphaScreen assay (Example 9), BRD2-1; format: binding
T4 construct: BRD2-1: Domain 1 of BRD2
Method: as §1, §2, §3, §4

BRD2-1: Domain 1 of BRD2 = target: T5, BRD2-1: Domain 1 of BRD2 (Homo sapiens, UniProt P25440); experiment: Bromodomain binding assay (Example 6), BRD2-1
T5 construct: BRD2-1: Domain 1 of BRD2
Method: as §7, §8

[2] = Liver microsome stability, mouse; format: in vitro ADME, mouse (CD-1; details: male, CD-1, mouse, pooled mouse liver microsomes, 1 μM compound, 0.5 mg/ml microsomes, 37° C., read-out: % recovery Mouse Liver Microsomes (MLM) (30 min)
Method: as §5, §6

[3] = target: T6, BRD4-FL: Full length BRD4 (Homo sapiens, UniProt O60885); experiment: Bromodomain binding assay (Example 6), BRD4-FL
T6 construct: BRD4-FL: Full length BRD4
Method: as §7, §8

[4] = system: MM.1S subcutaneous human multiple myeloma xenograft; experiment: MM.1S subcutaneous human multiple myeloma xenograft model, efficacy; format: in vivo, NOD SCID mice
Method: • Species & Strain: NOD SCID mice • Age: 7-8 week • Total Number: 50 mice plus 40% spare • Sex: Female • Body Weight: 18 to 22 g Animal Maintenance
Groups and treatments started when the mean tumor volume reached about 100-150 mm^3. Based on the tumor volume, mice were randomly assigned to respective groups using a computer-generated randomization procedure.
Each mouse was inoculated subcutaneously on the right flank with MM.1S tumor cells (5×10^6) in 0.1 ml of RPMI-1640 without serum (mixed matrigel) for tumor development. The treatment started when the mean tumor size reached approximately 100-150 mm^3. Mice were then randomized into groups.
The measurement of tumor size was conducted twice weekly with a caliper and the tumor volume (mm^3) was estimated using the formula: TV=a×b^2/2, where “a” and “b” are long and short diameters of a tumor, respectively. The TVs were used for calculation of the tumor growth inhibition (TGI, an indicator of antitumor effectiveness) value using the formula: TGI=(1−T/C)×100%, where “T” and “C” is the mean relative volumes (% tumor growth) of the tumors in the treated and the control groups, respectively, on a given day after tumor inoculation. The experiment terminated when the mean tumor volume exceeded 2000 mm^3 or severe body weight loss was observed.

TEX = experiment: Oncology cell growth assay, TEX; format: cell-based, human; details: Homo sapiens, AML (acute myeloid leukemia), gIC50, 72 hours
Method: (§9) Human cell lines were cultured in RPMI-1640 containing 10% fetal bovine serum, 1000 viable cells per well were plated in 384-well black flat bottom polystyrene plates (Greiner #781086) in 48 ˜I of culture media. All plates were placed at 5% CO2, 37° C. overnight. The following day one plate was harvested with CeliTiter-Glo (CTG, Promega #G7573) for a time equal to 0 (TO) measurement and compound (20 point titration from 14.7 uM to 7 pM) was added to the remaining plates. The final concentration of DMSO in all wells was 0.15%. Cells were incubated for 72 hours or the indicated time and each plate was developed with CeliTiterGlo reagent using a volume equivalent to the cell culture volume in the wells. Plates were shaken for approximately 2 minutes and chemiluminescent signal was read on the Analyst GT (Molecular Devices) or EnVision Plate Reader (Perkin Elmer).
(§10) Results are expressed as a percent of the TO and plotted against the compound concentration. The TO value was normalized to 100% and represents the number of cells at time of compound addition and the concentration response data were fit with a 4 parameter curve fit using XLfit software (model 205). […] The Ymin-TO value was determined by subtracting the TO value (100%) from the Ymin value (%) determined from the fit of the concentration response curve. […]

[5] = system: MV4-11 human AML xenograft; experiment: MV4-11 subcutaneous human AML xenograft model, efficacy; format: in vivo, NOD SCID mice; details: 30 mg/kg and 50 mg/kg, PO
Method: • Species & Strain: NOD SCID mice • Age: 7-8 week • Total Number: 60 mice plus 40% spare • Sex: Female • Body Weight: 18 to 22 g Animal Maintenance
Groups and treatments started when the mean tumor volume reached 138 mm^3. Based on the tumor volume, mice were randomly assigned to respective groups using a computer-generated randomization procedure.
Each mouse was inoculated subcutaneously on the right flank with MV4-11 tumor cells ([…]) in 0.1 ml of IMDM without serum for tumor development. The treatment started when the mean tumor size reached approximately 138 mm^3. Mice were randomized into groups.
During the course of study, the tumor size was measured twice a week in two dimensions using a caliper, and the volume was expressed in mm^3 using the formula: TV=a×b2/2 where a and b were the long and short diameters of the tumor, respectively. The tumor size was then used for T/C and TGI (tumor growth inhibition) values, which were indicators of anti-tumor effectiveness. T/C was calculated with the formula [(Td−T0)/(Cd−C0)]×100%, TGI is calculated with the formula [1−(Td−T0)/(Cd−C0)]×100%. Td and Cd were the mean tumor volumes (or median tumor volumes) of the treated and control animals, and T0 and C0 were the mean tumor volumes of the treated and control animals at the start of the experiment.

SK-OV-3 = experiment: Oncology cell growth assay, SK-OV-3; format: cell-based, human; details: Homo sapiens; SK-OV-3, Ovarian cancer; gIC50, 72 hours
Method: as §9, §10

HL60 = experiment: Oncology cell growth assay, HL60; format: cell-based, human; details: Homo sapiens, HL-60; HL60, Promyelocytic leukemia; gIC50, 72 hours
Method: as §9, §10

RPMI-8226 = experiment: Oncology cell growth assay, RPMI-8226; format: cell-based, human; details: Homo sapiens; RPMI-8226, Multiple myeloma; gIC50, 72 hours
Method: as §9, §10

MV4-11 = experiment: Oncology cell growth assay, MV4-11; format: cell-based, human; details: Homo sapiens; MV4-11, AML (acute myeloid) leukemia; gIC50, 72 hours
Method: as §9, §10

MM.1S = experiment: Oncology cell growth assay, MM.1S; format: cell-based, human; details: Homo sapiens, MM1.S, Multiple myeloma, gIC50, 72 hours
Method: as §9, §10

AML2 = experiment: Oncology cell growth assay, AML2; format: cell-based, human; details: Homo sapiens; AML2, AML (acute myeloid leukemia); gIC50, 72 hours
Method: as §9, §10

[6] = MV4-11 xenograft model, tolerance (body weight, clinical signs); format: in vivo; details: all dose levels (30 and 50 mg/kg PO)
Method: For routine monitoring, all study animals were monitored not only tumor growth but also behavior such as mobility, food and water consumption (by cage side checking only), body weight (BW), eye/hair matting and any other abnormal effect. Any mortality and/or abnormal clinical signs would be recorded.
Body weights of all animals were measured twice weekly throughout the study.

GBM cell = details: in vitro and in vivo; cited from earlier work
[7] = system: prostate cancer cell lines with activated AR signaling; details: cited from earlier work
ABC DLBCL = details: combination with drugs targeting B-cell receptor signaling; cited from earlier work
AR target genes = details: AR-positive cells; cited from earlier work

T5 sequence (P25440 74-180 limits assumed): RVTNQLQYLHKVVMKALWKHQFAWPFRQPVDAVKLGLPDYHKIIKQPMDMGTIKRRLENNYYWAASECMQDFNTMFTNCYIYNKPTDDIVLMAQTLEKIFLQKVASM
T4 sequence (P25440 74-180 limits assumed): as above
T2 sequence (Q15059 34-140 limits assumed): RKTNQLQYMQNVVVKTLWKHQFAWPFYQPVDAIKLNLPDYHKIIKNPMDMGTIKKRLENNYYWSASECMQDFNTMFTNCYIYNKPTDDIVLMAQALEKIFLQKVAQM
T3 sequence (Q15059 34-140 limits assumed): as above

Row | SMILES | EC50 (BRD4-FL) [nM] | recovery at 30 min, 1 μM [1] [%] | EC50 (BRD3-1) [nM] | IC50 (BRD3-1: Domain 1 of BRD3) [nM] | EC50 (BRD2-1) [nM] | IC50 (BRD2-1: Domain 1 of BRD2) [nM] | recovery at 30 min, 1 μM [2] [%] | IC50 [3] [nM] | also measured
1 | COc1cc2c(cc1-c1c(C)noc1C)ncc1nc(C3CCOCC3)n([C@H](C)COC(F)F)c12 [2(g), 4-[1-[(1R)-2-(difluoromethoxy)-1-methyl-ethyl]-8-methoxy-2-tetrahydropyran-4-yl-imidazo[4,5-c]quinolin-7-yl]-3,5-dimethyl-isoxazole] | 7.17 | 43 | 2.76 | 17 | 6.89 | 24 | 55.5 | 14 | tumor volume ([4]; 10 mg/kg, 30 mg/kg and 60 mg/kg PO QD × 21, 21 days post administration, dose dependent): significantly reduced the tumor volume; tumor volume compared with carfilzomib (CFZ) ([4]; 30 mg/kg and 60 mg/kg PO, 21 days post administration, CFZ 5 mg/kg IV): reduced the tumor volume to a greater extent than carfilzomib; antitumor activity ([4]; low-dose 10 mg/kg PO): moderate antitumor activity
2 | COc1cc2c(cc1-c1c(C)noc1C)ncc1nc(C3CC3)n([C@H](C)COC(F)F)c12.Cl [2(l), 4-[2-cyclopropyl-1-[(1R)-2-(difluoromethoxy)-1-methyl-ethyl]-8-methoxy-imidazo[4,5-c]quinolin-7-yl]-3,5-dimethyl-isoxazole hydrochloride] | 33.1 | 43.6 | 20.7 | 21 | 42.2 | 42 | 3 | 33 | IC50 (TEX): 52 ± 73 nM; antitumor activity [5]: significant antitumor activity; IC50 (SK-OV-3): 360 ± 10 nM; IC50 (HL60): 179 ± 10 nM; IC50 (RPMI-8226): 109 ± 32 nM; IC50 (MV4-11): 156 ± 43 nM; IC50 (MM.1S): 94 ± 14 nM; IC50 (AML2): 15 ± 1 nM; tolerance [6]: tolerated well
3 | COc1cc2c(cc1-c1c(C)noc1C)ncc1nc(CN3CCOCC3)n([C@H](C)COC(F)F)c12 [3(a), 4-[[1-[(1R)-2-(difluoromethoxy)-1-methyl-ethyl]-7-(3,5-dimethylisoxazol-4-yl)-8-methoxy-imidazo[4,5-c]quinolin-2-yl]methyl]morpholine trihydrochloride] | 9.52 | 1.9 | 10 | 10 | 19.3 | 19 | 3.7 | 10 | –
4 | COc1cc2c(cc1-c1c(C)noc1C)ncc1[nH]c(=O)n([C@H](C)c3ccccn3)c12 [I-BET151] | – | – | – | – | – | – | – | – | GBM cell proliferation (GBM cell): reduced GBM cell proliferation in vitro and in vivo
5 | Cc1sc2c(c1C)C(c1ccc(Cl)cc1)=N[C@@H](CC(=O)OC(C)(C)C)c1nnc(C)n1-2 [JQ-1] | – | – | – | – | – | – | – | – | apoptosis and cell cycle arrest [7]: sensitive to JQ1-induced apoptosis and cell cycle arrest; drug-drug synergy (ABC DLBCL): combined favorably with multiple drugs targeting B-cell receptor signaling; levels of transcription of AR target genes (AR target genes): globally reduced the levels of transcription of AR target genes

From patent US10259809B2, “Fluorinated imidazo[4,5-C]quinoline derivatives as inhibitors of bromodomain containing proteins” (Trillium Therapeutics Inc., priority 2015, dated 2019)
